Calls of active or inactive are those of the source. The calls are words filed in the database; no cut-off is given here.
Key:
Rattus norvegicus [1] = experiment: Downregulation of ICAM-1 expression in Rattus norvegicus Sprague-Dawley (rat) heart at 20 mg/kg, iv measured 10 min post LAD ligation by Western blot analysis relative to untreated control; assay type: functional, organism-based; design: dose 20 mg/kg
Rattus norvegicus [2] = experiment: (§1) Cardioprotective activity in Rattus norvegicus Sprague-Dawley (rat) ischemia-reperfusion injury model assessed as decrease in myocardial infarct size at 20 mg/kg, iv administered 10 min prior to ischemia-reperfusion establishment measured after 6 hr by tetrazolium chloride staining-based planimetric analysis (reference value: 42.6 +/- 3.8 %); assay type: functional, Myocardium; design: scale not given: the % may be the effect or the level left
Rattus norvegicus [3] = experiment: Cardioprotective activity in Rattus norvegicus Sprague-Dawley (rat) ischemia-reperfusion injury model assessed as decrease in polymorphonuclear leukocytes infiltration in myocardial tissue at 20 mg/kg, iv measured 10 min prior to reperfusion measured at 6 hr by hematoxylin-eosin staining-based light microscopy relative to untreated control; assay type: functional, organism-based; design: dose 20 mg/kg; conditions: Myocardium
Rattus norvegicus [4] = experiment: as §1, with “area at risk” for “decrease”, “tissue” for “infarct size”, “Evans blue” for “tetrazolium chloride”, “49.8” for “42.6”, “3.7” for “3.8”; assay type: functional, Myocardium
Rattus norvegicus [5] = experiment: Cardioprotective activity in Rattus norvegicus Sprague-Dawley (rat) ischemia-reperfusion injury model assessed as decrease in myeloperoxidase activation in myocardial tissue at 20 mg/kg, iv measured 10 min prior to reperfusion measured at 6 hr by spectrophotometric analysis relative to untreated control; assay type: functional, organism-based; design: dose 20 mg/kg; conditions: Myocardium

CC(C)=CCC[C@](C)(O[C@@H]1O[C@H](CO)[C@@H](O)[C@H](O)[C@H]1O)[C@H]1CC[C@]2(C)[C@@H]1[C@H](O)C[C@@H]1[C@@]3(C)CC[C@H](O)C(C)(C)[C@@H]3[C@@H](O[C@@H]3O[C@H](CO)[C@@H](O)[C@H](O)[C@H]3O[C@@H]3O[C@@H](C)[C@H](O)[C@@H](O)[C@H]3O)C[C@]12C [GINSENOSIDE RE] was tested, and the Activity (Rattus norvegicus [1]) was “Active”, the Activity (Rattus norvegicus [2]) was 42.6% and the Activity (Rattus norvegicus [3]) was “Active”. For the same compound, the Activity (Rattus norvegicus [4]) was 50.3% and the Activity (Rattus norvegicus [5]) was “Active”.
